Active and inactive are the calls of the source. Some results are limits rather than exact numbers.

Broadly, the AC50 is the concentration giving half of the maximal activity seen. Broadly, the EC50 is the concentration giving half of the maximal effect. One may read the CC50 as the concentration giving 50% cytotoxicity.

For test [1], the target named is Dual specificity protein phosphatase 6 (Rattus norvegicus, UniProt Q64346). The class given is functional.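 Also: confirmatory in vitro dose-response testing of MKP-3 inhibition; recombinant His-tagged MKP-3 made in E. coli BL21 with OMFP substrate.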
The target of test [2] is T1, Dual specificity protein phosphatase 3 (Homo sapiens, UniProt P51452). As to the kind of experiment: SAR VHR1 absorbance Assay for In Vitro dose response studies. [Related pubchem assays (depositor defined):AID1654, AID1661, AID1878, AID1992, AID2004].
For test [3], the target named is T1, Dual specificity protein phosphatase 3. The test can be described thus: SAR VHR1 Fluorescent Assay for In Vitro dose response studies. [Related pubchem assays (depositor defined):AID1654, AID1661, AID1878, AID1992, AID2004, AID2070, AID2085]. The class given is functional.
Test [4] concerns the target T2, Tyrosine-protein phosphatase non-receptor type 7 (Homo sapiens, UniProt P35236).
T2 sequence (P35236 whole entry): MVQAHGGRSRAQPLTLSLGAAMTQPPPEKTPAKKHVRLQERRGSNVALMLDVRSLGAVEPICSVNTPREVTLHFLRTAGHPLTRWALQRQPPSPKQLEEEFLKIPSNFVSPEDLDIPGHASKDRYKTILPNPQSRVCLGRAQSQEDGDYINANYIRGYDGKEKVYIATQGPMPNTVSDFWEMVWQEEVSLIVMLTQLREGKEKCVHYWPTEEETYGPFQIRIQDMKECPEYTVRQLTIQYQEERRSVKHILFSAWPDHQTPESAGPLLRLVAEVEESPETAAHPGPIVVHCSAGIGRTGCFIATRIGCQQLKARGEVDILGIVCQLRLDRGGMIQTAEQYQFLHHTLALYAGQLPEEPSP
The test can be described thus: redox-dependent HePTP inhibition, mechanism study, biochemical, fluorescence (AID 2068). The class given is functional.

The test system of test [5] is INS1. As to the kind of experiment: inhibitors of cytokine-induced nitrite release, dose response, cell-based, Griess absorbance, INS-1E, dry powder (AID 488866). The class given is functional. The note with it: Rattus norvegicus.
In test [6] the target is T3, Carboxy-terminal domain RNA polymerase II polypeptide A small phosphatase 1 (Homo sapiens, UniProt Q9GZU7).
T3 sequence (Q9GZU7 whole entry): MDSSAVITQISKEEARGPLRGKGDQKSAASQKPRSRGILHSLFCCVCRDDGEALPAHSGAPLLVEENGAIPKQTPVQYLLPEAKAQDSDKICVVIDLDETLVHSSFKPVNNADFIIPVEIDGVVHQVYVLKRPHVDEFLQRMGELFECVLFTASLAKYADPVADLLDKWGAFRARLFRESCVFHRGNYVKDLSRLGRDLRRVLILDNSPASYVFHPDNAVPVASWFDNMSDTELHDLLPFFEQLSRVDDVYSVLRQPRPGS
As to the kind of experiment: inhibitors of CTDSP1, concentration-response testing, biochemical assay, absorbance-based, actives from ultra-high-throughput screening (AID 540297). The class given is functional.

Test [7] addresses Bifunctional protein GlmU (Mycobacterium tuberculosis, UniProt P9WMN3). The test can be described thus: Inhibitors of Mycobacterial Glucosamine-1-phosphate acetyl transferase (GlmU). Secondary screen. The arrangement: species or system Mycobacterium tuberculosis H37Rv.
The target of test [8] is T4, Apoptotic protease-activating factor 1 (Homo sapiens, UniProt O14727).
T4 sequence (O14727 whole entry): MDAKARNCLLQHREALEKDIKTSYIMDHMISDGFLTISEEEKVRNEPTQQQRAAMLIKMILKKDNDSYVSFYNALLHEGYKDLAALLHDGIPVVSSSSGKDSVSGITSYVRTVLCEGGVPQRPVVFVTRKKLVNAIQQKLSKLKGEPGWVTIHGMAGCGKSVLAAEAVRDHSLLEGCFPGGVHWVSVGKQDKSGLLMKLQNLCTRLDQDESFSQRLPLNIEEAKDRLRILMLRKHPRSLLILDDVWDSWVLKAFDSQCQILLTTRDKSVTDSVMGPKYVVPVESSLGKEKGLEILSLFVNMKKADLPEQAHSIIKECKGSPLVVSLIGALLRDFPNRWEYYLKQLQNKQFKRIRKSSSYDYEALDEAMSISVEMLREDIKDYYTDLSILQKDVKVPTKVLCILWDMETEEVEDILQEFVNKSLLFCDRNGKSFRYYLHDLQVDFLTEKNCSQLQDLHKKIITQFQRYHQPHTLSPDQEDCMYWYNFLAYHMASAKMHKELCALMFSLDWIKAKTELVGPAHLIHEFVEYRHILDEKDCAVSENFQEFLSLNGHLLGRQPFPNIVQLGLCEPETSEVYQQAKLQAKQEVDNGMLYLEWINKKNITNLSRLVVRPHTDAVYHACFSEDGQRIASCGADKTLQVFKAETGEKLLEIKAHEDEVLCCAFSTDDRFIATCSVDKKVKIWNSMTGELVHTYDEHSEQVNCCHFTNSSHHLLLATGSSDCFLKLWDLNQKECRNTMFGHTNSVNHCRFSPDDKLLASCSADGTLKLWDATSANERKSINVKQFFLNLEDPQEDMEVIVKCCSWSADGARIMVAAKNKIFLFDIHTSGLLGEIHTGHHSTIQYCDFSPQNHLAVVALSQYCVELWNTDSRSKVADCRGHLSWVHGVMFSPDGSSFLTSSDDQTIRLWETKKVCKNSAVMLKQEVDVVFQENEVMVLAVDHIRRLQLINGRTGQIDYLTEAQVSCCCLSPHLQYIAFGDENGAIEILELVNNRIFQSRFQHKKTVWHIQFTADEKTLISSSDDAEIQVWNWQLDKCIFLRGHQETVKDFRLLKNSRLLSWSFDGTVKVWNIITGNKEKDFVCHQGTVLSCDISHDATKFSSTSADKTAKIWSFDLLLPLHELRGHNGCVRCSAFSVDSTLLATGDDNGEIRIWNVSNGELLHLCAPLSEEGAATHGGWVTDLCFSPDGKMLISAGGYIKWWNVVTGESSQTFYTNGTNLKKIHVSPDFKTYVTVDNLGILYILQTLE
As to the kind of experiment: activation of Apaf-1 mediated apoptosis – fluorescent, uHTS hits, dose response (AID 588554). In kind it is functional.

For test [9], the target named is DNA dC->dU-editing enzyme APOBEC-3G (Homo sapiens, UniProt Q9HC16). As to the kind of experiment: Dose Response confirmation of small molecule APOBEC3G DNA Deaminase Inhibitors via a fluorescence-based single-stranded DNA deaminase assay. [Related pubchem assays (depositor defined):AID493012, AID493028]. The class given is functional.
Test [10] concerns the target T5, Small ubiquitin-related modifier 1 (Homo sapiens, UniProt P63165). As to the kind of experiment: inhibitors of SUMO1 peptide binding, dose response, biochemical, fluorescence polarization, uHTS hits (AID 624382). The class given is functional. The following applies: read-out: IC50_Mean. Background: Polarisation of emitted light reports the rotation of a fluorescent probe.

Test [11] deals with DNA (cytosine-5)-methyltransferase 1 (Homo sapiens, UniProt P26358). As to the kind of experiment: DNMT1 methyltransferase inhibitors, confirmation, biochemical, fluorescent molecular beacon (AID 602386). The class given is functional.
Test [12] concerns the target DNA dC->dU-editing enzyme APOBEC-3A (Homo sapiens, UniProt P31941). The test can be described thus: APOBEC3A DNA deaminase inhibitors, dose response, biochemical (AID 504722). The class given is functional.
Test [13] has as its target T5, Small ubiquitin-related modifier 1. As to the kind of experiment: inhibitors of SUMO1 partner interactions, dose response, biochemical, FRET (AID 624383). In kind it is functional. The note with it: read-out: IC50_Mean.
Test [14] addresses Heat shock protein HSP 90-alpha (Homo sapiens, UniProt P07900). The class given is functional, organism-based.
In test [15] the target is Intestinal-type alkaline phosphatase (Homo sapiens, UniProt P09923). The test can be described thus: Dose Response confirmation of uHTS hits from a small molecule inhibitors of human intestinal alkaline phosphatase via a luminescent assay. [Related pubchem assays (depositor defined):AID2544, AID2574]. The class given is functional.
Test [16] is described as follows: cells. The class given is functional, cell-based.
Test [17] can be described thus: inhibitors of firefly luciferase expression or activity, dose response, H4 neuroglioma cells, luminescence (AID 1990). In kind it is functional, cell-based.
Test [18] can be described thus: Counterscreen for AddAB inhibitors: absorbance-based bacterial cell-based high throughput dose response assay for inhibitors of bacterial viability. [Related pubchem assays (depositor defined):AID435030, AID449728, AID449731, AID488942, AID488955, AID488956]. In kind it is functional. For orientation: The purpose of a counterscreen is to sort out artefacts and off-target activity.

The nature of test [19]: cytotoxicity toward DRD oncogenic fibroblasts, dose response, cell-based, non-viral oncogenic, luminescence (AID 1934). The class given is functional. The note with it: Homo sapiens.
Test [20] in a line: cells. The class given is functional, cell-based. The source holds these as a separate data set.
For test [21], the system named is BJ. The test can be described thus: cytotoxicity toward Ras-transformed BJeLR fibroblasts, dose response, cell-based, alamar blue fluorescence, cherrypicked samples (AID 2631).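 Also: confirmatory dose-response assay in RAS-dependent BJ fibroblasts engineered with TERT, LT and ST, with cytotoxicity read by fluorescence.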 The class given is functional. The note with it: Homo sapiens. (Alamar Blue is a resazurin reagent that responds to reducing activity.)
A short description of test [22]: cells. The class given is functional.
The subject of test [23] is HEK293. The test can be described thus: inhibitors of LMP1-driven NF-kB reporter, dose response, cell-based, HEK293, luciferase, cherry-pick (AID 588343). In kind it is functional. The following applies: Homo sapiens.
Test [24] deals with BJ. The test can be described thus: cytotoxicity toward BJ-TERT fibroblasts, dose response, cell-based, RAS-independent, luminescence (AID 1933). In kind it is functional. The note with it: Homo sapiens.
Test [25] can be described thus: THP-1 cell cytotoxicity, dose response, cytotoxicity control for non-replicating M. tuberculosis project (AID 489025). The class given is functional.
Test [26] relates to BJ. As to the kind of experiment: cells. In kind it is functional, cell-based. The following applies: Homo sapiens.
The nature of test [27]: inhibitors of SNCA 5'UTR-driven reporter translation, confirmation, H4 neuroglioma cells, luminescence (AID 1988). In kind it is functional, cell-based.
In test [28] the test system is INS1. The test can be described thus: beta cell apoptosis inhibitors, cytokine rescue, dose response, luminescence, retest (AID 449756).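 Also: cell death triggered by IL-1 beta plus TNF-alpha plus IFN-gamma mixture; protective hits raise ATP signal compared with cytokine alone wells.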 The note with it: Rattus norvegicus. In kind it is functional, cell-based.
Test [29] is described as follows: Luminescence Cell-Based Dose Response HTS to Identify Inhibitors of 5'UTR Stem-Loop Driven Prion Protein mRNA Translation in H4 Neuroglioblastoma Cells. [Related pubchem assays: 1827 (Project Summary), 1813 (Primary HTS)]. In kind it is functional.
Test [30] deals with Nonstructural protein 1 (Influenza A virus, UniProt Q194T2). The class given is functional, Influenza A virus (A/California/07/2009(H1N1)).
Test [31] relates to BJ. As to the kind of experiment: cytotoxicity toward BJ-TERT-LT-ST fibroblasts, dose response, cell-based, RAS-independent, luminescence (AID 1935).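 Also: BJ fibroblasts immortalized with TERT plus LT and ST oncogenes.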 The class given is functional. The following applies: Homo sapiens.
Test [32] addresses Exodeoxyribonuclease V (Escherichia coli (strain K12), UniProt P04993+P07648+P08394). As to the kind of experiment: E. coli RecBCD inhibitors, dose response, counter-screen for AddAB inhibitor project, absorbance, V66 E. coli, mutant T4 phage (AID 492957). In kind it is functional, cell-based, Escherichia coli str. K-12 substr. MG1655.

T1 sequence (P51452 whole entry): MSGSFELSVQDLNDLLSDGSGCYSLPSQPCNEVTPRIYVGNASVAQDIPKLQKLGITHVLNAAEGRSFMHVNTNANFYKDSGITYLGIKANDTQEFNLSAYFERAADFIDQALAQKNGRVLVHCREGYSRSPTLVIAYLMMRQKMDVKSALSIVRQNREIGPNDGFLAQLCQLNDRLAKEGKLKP
T5 sequence (P63165 whole entry): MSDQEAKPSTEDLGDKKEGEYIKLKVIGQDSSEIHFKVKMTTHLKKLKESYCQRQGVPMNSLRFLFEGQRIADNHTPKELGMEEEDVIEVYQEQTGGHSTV
Chain of Dual specificity protein phosphatase 6 (Q64346 whole entry): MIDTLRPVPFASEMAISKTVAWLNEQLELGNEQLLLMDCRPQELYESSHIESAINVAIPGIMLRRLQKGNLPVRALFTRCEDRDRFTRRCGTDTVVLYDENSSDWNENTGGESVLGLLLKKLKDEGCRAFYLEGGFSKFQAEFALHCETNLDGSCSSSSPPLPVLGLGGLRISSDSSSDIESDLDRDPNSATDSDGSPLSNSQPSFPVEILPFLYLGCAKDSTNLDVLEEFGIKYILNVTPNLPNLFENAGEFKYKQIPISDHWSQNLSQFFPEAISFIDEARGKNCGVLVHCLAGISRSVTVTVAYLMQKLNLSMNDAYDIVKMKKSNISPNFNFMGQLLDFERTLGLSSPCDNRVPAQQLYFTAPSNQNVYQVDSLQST
Chain of Bifunctional protein GlmU (P9WMN3 whole entry): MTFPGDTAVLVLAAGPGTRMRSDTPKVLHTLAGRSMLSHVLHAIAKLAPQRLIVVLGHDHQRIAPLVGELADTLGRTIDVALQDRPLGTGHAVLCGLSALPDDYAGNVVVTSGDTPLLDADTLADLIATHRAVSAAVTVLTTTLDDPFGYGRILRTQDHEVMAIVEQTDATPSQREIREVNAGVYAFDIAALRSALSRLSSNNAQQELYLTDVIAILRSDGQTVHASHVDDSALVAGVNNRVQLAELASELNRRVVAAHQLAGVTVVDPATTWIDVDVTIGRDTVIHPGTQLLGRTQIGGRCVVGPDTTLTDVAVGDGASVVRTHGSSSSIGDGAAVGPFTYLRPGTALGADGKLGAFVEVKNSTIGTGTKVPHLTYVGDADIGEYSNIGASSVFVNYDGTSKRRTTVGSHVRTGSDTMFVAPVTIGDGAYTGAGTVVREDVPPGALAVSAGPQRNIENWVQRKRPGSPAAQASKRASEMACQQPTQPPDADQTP
Chain of DNA dC->dU-editing enzyme APOBEC-3G (Q9HC16 whole entry): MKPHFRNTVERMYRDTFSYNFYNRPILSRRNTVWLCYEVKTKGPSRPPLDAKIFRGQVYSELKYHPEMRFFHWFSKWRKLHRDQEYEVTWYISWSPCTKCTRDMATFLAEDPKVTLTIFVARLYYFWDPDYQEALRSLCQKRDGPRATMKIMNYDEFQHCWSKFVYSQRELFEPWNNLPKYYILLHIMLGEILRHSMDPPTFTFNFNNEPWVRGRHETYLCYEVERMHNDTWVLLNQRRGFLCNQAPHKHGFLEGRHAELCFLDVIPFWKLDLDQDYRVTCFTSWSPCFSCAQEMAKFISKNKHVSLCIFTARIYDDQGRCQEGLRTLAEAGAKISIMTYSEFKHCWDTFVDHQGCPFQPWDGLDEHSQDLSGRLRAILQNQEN
Chain of DNA dC->dU-editing enzyme APOBEC-3A (P31941 whole entry): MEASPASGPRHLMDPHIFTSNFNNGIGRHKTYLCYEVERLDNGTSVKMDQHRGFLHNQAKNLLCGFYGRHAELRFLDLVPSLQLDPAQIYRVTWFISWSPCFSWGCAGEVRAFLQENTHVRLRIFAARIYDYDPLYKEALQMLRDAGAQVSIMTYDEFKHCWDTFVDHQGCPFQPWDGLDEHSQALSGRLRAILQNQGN
Chain of DNA (cytosine-5)-methyltransferase 1 (P26358 whole entry): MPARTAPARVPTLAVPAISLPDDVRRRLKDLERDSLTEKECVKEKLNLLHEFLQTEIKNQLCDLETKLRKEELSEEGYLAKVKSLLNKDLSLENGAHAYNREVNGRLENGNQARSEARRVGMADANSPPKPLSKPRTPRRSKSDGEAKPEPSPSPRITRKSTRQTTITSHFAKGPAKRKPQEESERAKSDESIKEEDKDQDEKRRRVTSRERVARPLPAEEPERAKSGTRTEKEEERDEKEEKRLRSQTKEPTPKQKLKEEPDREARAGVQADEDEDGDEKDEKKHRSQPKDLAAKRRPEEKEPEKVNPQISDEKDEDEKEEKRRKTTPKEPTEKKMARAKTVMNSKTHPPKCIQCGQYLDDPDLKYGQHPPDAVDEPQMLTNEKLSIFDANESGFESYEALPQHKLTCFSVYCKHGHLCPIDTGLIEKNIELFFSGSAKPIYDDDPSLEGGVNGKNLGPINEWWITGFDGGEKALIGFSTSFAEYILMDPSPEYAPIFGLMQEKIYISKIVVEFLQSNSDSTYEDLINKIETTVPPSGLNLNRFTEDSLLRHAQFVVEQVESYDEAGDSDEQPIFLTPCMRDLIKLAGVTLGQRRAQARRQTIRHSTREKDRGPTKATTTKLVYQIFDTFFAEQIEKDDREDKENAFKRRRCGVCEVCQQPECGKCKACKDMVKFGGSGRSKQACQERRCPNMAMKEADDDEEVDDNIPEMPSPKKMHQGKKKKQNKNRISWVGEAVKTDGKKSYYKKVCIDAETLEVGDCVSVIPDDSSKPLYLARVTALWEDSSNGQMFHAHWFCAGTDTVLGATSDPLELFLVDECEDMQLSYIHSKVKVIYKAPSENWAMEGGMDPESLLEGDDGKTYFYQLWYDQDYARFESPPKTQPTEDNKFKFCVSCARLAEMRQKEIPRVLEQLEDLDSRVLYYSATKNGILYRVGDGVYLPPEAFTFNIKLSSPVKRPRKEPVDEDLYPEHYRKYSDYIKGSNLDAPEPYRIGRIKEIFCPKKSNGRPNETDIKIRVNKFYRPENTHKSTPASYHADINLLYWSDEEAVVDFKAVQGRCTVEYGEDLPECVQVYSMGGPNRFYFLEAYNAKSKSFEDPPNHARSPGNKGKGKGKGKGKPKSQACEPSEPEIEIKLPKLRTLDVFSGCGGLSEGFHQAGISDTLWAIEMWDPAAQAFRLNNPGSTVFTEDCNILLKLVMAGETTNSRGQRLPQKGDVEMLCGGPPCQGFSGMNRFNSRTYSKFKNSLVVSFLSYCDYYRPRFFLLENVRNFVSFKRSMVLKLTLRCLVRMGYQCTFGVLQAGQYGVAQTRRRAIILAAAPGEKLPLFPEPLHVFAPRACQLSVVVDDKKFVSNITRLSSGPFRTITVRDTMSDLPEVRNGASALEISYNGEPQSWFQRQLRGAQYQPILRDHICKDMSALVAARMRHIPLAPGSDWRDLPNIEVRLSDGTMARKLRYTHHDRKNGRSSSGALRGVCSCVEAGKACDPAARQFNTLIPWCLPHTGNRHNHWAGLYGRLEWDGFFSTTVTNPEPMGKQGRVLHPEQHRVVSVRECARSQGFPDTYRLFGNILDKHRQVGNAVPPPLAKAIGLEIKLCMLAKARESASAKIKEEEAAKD
Chain of Intestinal-type alkaline phosphatase (P09923 whole entry): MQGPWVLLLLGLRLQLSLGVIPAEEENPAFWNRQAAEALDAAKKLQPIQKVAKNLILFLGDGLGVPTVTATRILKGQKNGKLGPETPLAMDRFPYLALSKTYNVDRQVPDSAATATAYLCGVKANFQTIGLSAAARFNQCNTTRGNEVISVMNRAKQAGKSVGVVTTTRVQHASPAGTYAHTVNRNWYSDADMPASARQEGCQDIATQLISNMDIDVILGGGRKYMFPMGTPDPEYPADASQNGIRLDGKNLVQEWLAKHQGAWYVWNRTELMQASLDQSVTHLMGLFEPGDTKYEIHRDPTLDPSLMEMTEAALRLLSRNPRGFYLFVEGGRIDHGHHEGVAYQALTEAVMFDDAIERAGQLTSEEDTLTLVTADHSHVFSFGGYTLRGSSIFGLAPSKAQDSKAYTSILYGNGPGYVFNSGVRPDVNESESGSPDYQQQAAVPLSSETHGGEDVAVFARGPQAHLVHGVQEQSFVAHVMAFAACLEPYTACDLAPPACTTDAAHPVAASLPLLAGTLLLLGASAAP
Chain of Nonstructural protein 1 (Q194T2 whole entry): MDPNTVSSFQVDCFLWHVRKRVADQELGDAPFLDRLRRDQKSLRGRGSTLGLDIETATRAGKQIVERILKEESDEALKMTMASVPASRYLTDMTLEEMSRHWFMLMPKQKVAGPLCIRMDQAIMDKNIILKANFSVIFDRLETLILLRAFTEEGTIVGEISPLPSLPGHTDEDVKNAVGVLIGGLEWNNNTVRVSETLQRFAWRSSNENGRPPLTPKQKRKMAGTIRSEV

For `S=C(NC1CCCCC1)c1cn(CCOc2ccccc2)c2ccccc12`, the IC50 in test [1], in test [2], in test [3] and in test [4] was > 100 µM (inactive) in each case.
With `COc1ccc(S(=O)(=O)N(C)C[C@@H]2Oc3c(NC(=O)NC4CCCc5ccccc54)cccc3C(=O)N([C@@H](C)CO)C[C@H]2C)cc1` (some centres not stated), in test [5], the AC50 is 124 µM (active).
As to `C=C(C)C(=O)Nc1cccc(C2=NOC3(C2)C[C@H](C(N)=O)N(C(=O)COc2ccc(Cl)cc2)C3)c1` (some centres not stated), the IC50 in [6] was 3.74 µM (active); in [7] it was 118 µM (active); in test [9] it was 7.21 µM (active); in [10], > 66.6 µM (inactive); in test [11], 5.52 µM (active); in test [12], > 100 µM (inactive). Further, the IC50 in test [13] is 1.94 µM (active). Besides, the EC50 in test [8] was 4.23 µM (active).
In the case of `Cn1nnnc1N=N/C(=N/Nc1ccccc1)c1ccccc1`, the AC50 in [14] was 3.55 µM (active); in [23] it was 2.69 µM (active); in [28] it was 0.408 µM (active). Further, the IC50 in [15] was > 100 µM (inactive); in [18], > 119 µM (inactive); in test [22], 26.6 µM (active); in test [30], 26.5 µM (active); in [32], > 119 µM (inactive). For the same molecule, the EC50 is > 350 µM (not active) in [16]; > 120 µM (not active) in [17]; 7.59 µM (inconclusive) in test [19]; 8.13 µM (active) in [20]; 0.627 µM (inconclusive) in test [21]; 5.67 µM (active) in [24]. Besides, the EC50 in [26] is 2.17 µM (active); in [27] it was 8.09 µM (active); in [29] it was > 120 µM (not active); in test [31], 4.63 µM (inconclusive). The CC50 in test [25] is < 0.078 µM (active).

For the origin of these results see ChEMBL document CHEMBL1201862, “PubChem BioAssay data set” (2004).
